Patent publication US9725414B2, “Fungicidal N-bicycloalkyl and N-tricycloalkyl pyrazole-4-(thio)carboxamide derivatives” (priority 2011, dated 2017)

What was measured:
Uromyces appendiculatus = assay: Example Q: in vivo preventive test on Uromyces appendiculatus (bean rust); conditions: Uromyces appendiculatus on bean plants, 500 ppm of active ingredient, grading 11 days after contamination
Outline: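 Saxa bean plants at 2-leaf stage, grown at 24° C., sprayed preventively with compound; 24 h later inoculated with U. appendiculatus spores (150 000 spores per mL). Percent efficacy graded 11 days after inoculation versus solvent-treated controls.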

Sphaerotheca fuliginea [1] = assay: Example B: in vivo preventive test on Sphaerotheca fuliginea (powdery mildew on cucurbits), gherkin plants; conditions: 500 ppm of active ingredient, grading 12 days after contamination
Outline: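 Gherkin plants grown at 24 °C were sprayed with compound at the Z11 cotyledon stage; controls received acetone/tween/DMSO/water without active. 24 h later, cotyledons were inoculated by spraying with Sphaerotheca fuliginea spores (100 000 spores per mL).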

Botrytis cinerea [2] = assay: Example P: in vivo preventive test on Botrytis cinerea (grey mould), gherkin plants; conditions: 500 ppm of active ingredient, grading 4 to 5 days after contamination
Outline: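 Gherkin plants at Z11 cotyledon stage sprayed preventively with active ingredient, then inoculated 24 h later with B. cinerea spores (50 000/mL) in PDB/fructose nutrient solution. Incubation at 17 °C and 90% RH; % efficacy graded 4–5 days post-inoculation against solvent-treated controls.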

Pyrenophora teres = assay: Example F: in vivo preventive test on Pyrenophora teres (barley), acetone/tween/DMSO preparation; conditions: 500 ppm of active ingredient, barley, grading 14 days after contamination
Outline: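 Barley ("Plaisant") grown at 22° C was sprayed at the 1-leaf stage (10 cm) with active ingredient in acetone/tween/DMSO/water, with solvent-only controls. After 24 h, leaves were inoculated with Pyrenophora teres spores (12 000 spores per mL) from 12-day cultures. % efficacy versus controls graded 14 days post-contamination.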

Venturia inaequalis = assay: Example G: in vivo preventive test on Venturia inaequalis (apple scab); conditions: 100 ppm of active ingredient, evaluated 10 days after inoculation
Experimental: In Vivo Preventive Test on Venturia inaequalis (Apple Scab) Solvent: 24.5 parts by weight of acetone • 24.5 parts by weight of N,N-dimethylacetamide Emulsifier: 1 part by weight of alkylaryl polyglycol ether To produce a suitable preparation of active compound, 1 part by weight of active compound is mixed with the stated amounts of solvent and emulsifier, and the concentrate is diluted with water to the desired concentration. To test for preventive activity, young plants are sprayed with the preparation of active compound at the stated rate of application. After the spray coating has dried on, the plants are inoculated with an aqueous conidia suspension of the causal agent of apple scab (Venturia inaequalis) and then remain for 1 day in an incubation cabinet at approximately 20° C. and a relative atmospheric humidity of 100%. The plants are then placed in a greenhouse at approximately 21° C. and a relative atmospheric humidity of approximately 90%.

Alternaria solani = assay: Example C: in vivo preventive test on Alternaria solani (tomato); conditions: 500 ppm of active ingredient, evaluated 7 days after inoculation
Outline: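 Young tomato plants sprayed preventively with compound formulated in DMF/emulsifier and diluted with water, then inoculated one day later with Alternaria solani spores. Plants were held one day at about 22° C, 100% humidity, then at about 20° C, 96% humidity.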

Botrytis cinerea [3] = assay: Example O: in vivo protective test on Botrytis cinerea (beans); conditions: 100 ppm of active ingredient, lesion size 2 days after inoculation
Experimental: In Vivo Protective Test on Botrytis cinerea (Beans)
Solvent: 24.5 parts by weight of acetone • 24.5 parts by weight of N,N-dimethylacetamide
Emulsifier: 1 part by weight of alkylaryl polyglycol ether
To produce a suitable preparation of active compound, 1 part by weight of active compound is mixed with the stated amounts of solvent and emulsifier, and the concentrate is diluted with water to the desired concentration.
To test for preventive activity, young plants are sprayed with the preparation of active compound. After the spray coating has dried on, 2 small pieces of agar covered with growth of Botrytis cinerea are placed on each leaf. The inoculated plants are placed in a darkened chamber at 20° C. and a relative atmospheric humidity of 100%.
2 days after the inoculation, the size of the lesions on the leaves is evaluated. 0% means an efficacy which corresponds to that of the untreated control, while an efficacy of 100% means that no disease is observed.

Sphaerotheca fuliginea [4] = assay: Example A: in vivo preventive test on Sphaerotheca fuliginea (cucumber); conditions: 500 ppm of active ingredient, evaluated 7 days after inoculation
Experimental: In Vivo Preventive Test on Sphaerotheca fuliginea (Cucumber) Solvent: 49 parts by weight of N,N-dimethylformamide Emulsifier: 1 part by weight of alkylarylpolyglycolether To produce a suitable preparation of active compound, 1 part by weight of active compound is mixed with the stated amounts of solvent and emulsifier, and the concentrate is diluted with water to the desired concentration. To test for preventive activity, young plants are sprayed with the preparation of active compound at the stated rate of application. One day after this treatment, the plants are inoculated with an aqueous spore suspension of Sphaerotheca fuliginea. Then the plants are placed in a greenhouse at approximately 23° C. and a relative atmospheric humidity of approximately 70%.

Row | SMILES | Efficacy (Uromyces appendiculatus) | Efficacy (Sphaerotheca fuliginea [1]) | Efficacy (Botrytis cinerea [2]) | Efficacy (Pyrenophora teres) | Efficacy (Venturia inaequalis) | Efficacy (Alternaria solani) | Efficacy (Botrytis cinerea [3]) | Efficacy (Sphaerotheca fuliginea [4])
1 | Cn1nc(C(F)F)c(C(=O)N(C2CC2)C2CC3CCCCC3C2)c1F (stereo not drawn) [Example 12] | 97% | 98% | 100% | 100% | – | – | – | –
2 | Cn1nc(C(F)F)c(C(=O)N(C2CC2)C2CCCC3CCCC32)c1F (stereo not drawn) [Example 19] | 100% | 100% | 100% | 100% | 100% | – | – | –
3 | Cn1cc(C(=O)N(C2CC2)C2CCCC3CCCC32)c(C(F)F)n1 (stereo not drawn) [Example 20] | 100% | 100% | 100% | 97% | – | – | – | –
4 | Cn1nc(C(F)F)c(C(=O)N(CC2CCC3CCCC3C2)C2CC2)c1F (stereo not drawn) [Example 62] | 100% | 100% | – | 97% | – | – | – | –
5 | Cn1nc(C(F)F)c(C(=O)N(CC2(Cc3ccccc3)CC3CCC2C3)C2CC2)c1F (stereo not drawn) [Example 69] | 96% | 100% | – | 97% | – | – | – | –
6 | Cn1nc(C(F)F)c(C(=O)N(CC2CC3CCC2C3)C2CC2)c1F (stereo not drawn) [Example 71] | – | – | – | – | 100% | 100% | 97% | 100%
7 | CC(C1CC2CCC1C2)N(C(=O)c1c(C(F)F)nn(C)c1F)C1CC1 (stereo not drawn) [Example 93] | – | – | – | – | 100% | 95% | 100% | 100%
